Target: T1, glutathione peroxidase 1 (GPx1) (Homo sapiens, UniProt P07203)
T1 sequence (P07203 1-203): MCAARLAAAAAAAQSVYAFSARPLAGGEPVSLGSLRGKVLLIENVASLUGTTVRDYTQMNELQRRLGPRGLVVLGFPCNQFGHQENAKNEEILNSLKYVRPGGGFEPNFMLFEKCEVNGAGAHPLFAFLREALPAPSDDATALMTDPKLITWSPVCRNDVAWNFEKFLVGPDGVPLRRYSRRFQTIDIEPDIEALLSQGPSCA
Experiment: radiometric […]-fumarate binding to bead-bound flag-GPx1

Compound: O=C(O)/C=C/C(=O)O [fumarate]
- Kd: 75.5 ± 5.22 µM

— PMC4325424 (Cancer cell, 2015)
